Measured values as given in PubChem BioAssay (NCI).
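GI50 = concentration required for 50% inhibition of growth. TGI: concentration producing complete growth inhibition.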

Legend:
Experiment in all cases: DTP human tumour cell line panel, 384-well format
SF-268 CNS = tested on: SF-268 CNS
SW-620 colon = tested on: SW-620 colon
SF-539 CNS = tested on: SF-539 CNS
NCI-H23 lung = tested on: NCI-H23 lung
HOP-92 NSCLC = tested on: HOP-92 NSCLC
DU-145 prostate = tested on: DU-145 prostate
K-562 leukemia = tested on: K-562 leukemia
SR leukemia = tested on: SR leukemia
COLO 205 colon = tested on: COLO 205 colon
MCF7 breast = tested on: MCF7 breast
SN12C renal = tested on: SN12C renal
LOX IMVI melanoma = tested on: LOX IMVI melanoma
KM12 colon = tested on: KM12 colon
ACHN renal = tested on: ACHN renal
SK-MEL-5 melanoma = tested on: SK-MEL-5 melanoma
MDA-MB-231 breast = tested on: MDA-MB-231 breast
U251 glioblastoma = tested on: U251 glioblastoma
CAKI-1 renal = tested on: CAKI-1 renal
UO-31 renal = tested on: UO-31 renal
MDA-MB-468 breast = tested on: MDA-MB-468 breast
NCI-H522 lung = tested on: NCI-H522 lung
CCRF-CEM leukemia = tested on: CCRF-CEM leukemia
HT29 colon = tested on: HT29 colon
PC-3 prostate = tested on: PC-3 prostate
HL-60(TB) leukemia = tested on: HL-60(TB) leukemia
HCC-2998 colon = tested on: HCC-2998 colon
HCT-116 colon = tested on: HCT-116 colon
NCI/ADR-RES ovarian = tested on: NCI/ADR-RES ovarian
RXF 393 renal = tested on: RXF 393 renal
A549 NSCLC = tested on: A549 NSCLC
SK-MEL-28 melanoma = tested on: SK-MEL-28 melanoma
T-47D breast = tested on: T-47D breast
MDA-MB-435 melanoma = tested on: MDA-MB-435 melanoma
SK-MEL-2 melanoma = tested on: SK-MEL-2 melanoma
OVCAR-4 ovarian = tested on: OVCAR-4 ovarian
A498 renal = tested on: A498 renal
SK-OV-3 ovarian = tested on: SK-OV-3 ovarian
786-0 renal = tested on: 786-0 renal
RPMI-8226 leukemia = tested on: RPMI-8226 leukemia
UACC-62 melanoma = tested on: UACC-62 melanoma
MALME-3M melanoma = tested on: MALME-3M melanoma
BT-549 breast = tested on: BT-549 breast
NCI-H460 NSCLC = tested on: NCI-H460 NSCLC
TK-10 renal = tested on: TK-10 renal
M14 melanoma = tested on: M14 melanoma
UACC-257 melanoma = tested on: UACC-257 melanoma
OVCAR-5 ovarian = tested on: OVCAR-5 ovarian
HOP-62 NSCLC = tested on: HOP-62 NSCLC
NCI-H322M lung = tested on: NCI-H322M lung
OVCAR-8 ovarian = tested on: OVCAR-8 ovarian
IGROV1 ovarian = tested on: IGROV1 ovarian
SNB-19 CNS = tested on: SNB-19 CNS
SF-295 CNS = tested on: SF-295 CNS
HCT-15 colon = tested on: HCT-15 colon
NCI-H226 lung = tested on: NCI-H226 lung
OVCAR-3 ovarian = tested on: OVCAR-3 ovarian
MOLT-4 leukemia = tested on: MOLT-4 leukemia

COc1cc(N2CCC(N3CCN(C)CC3)CC2)ccc1Nc1ncnc(Nc2ccccc2S(=O)(=O)C(C)C)n1
GI50 (SF-268 CNS): 3.13 µM
TGI (SF-268 CNS): 12.2 µM
GI50 (SW-620 colon): 3.26 µM
TGI (SW-620 colon): 12.3 µM
GI50 (SF-539 CNS): 2290 nM
TGI (SF-539 CNS): 6.32 µM
GI50 (NCI-H23 lung): 2980 nM
TGI (NCI-H23 lung): 9.59 µM
GI50 (HOP-92 NSCLC): 1060 nM
TGI (HOP-92 NSCLC): 3.7 µM
GI50 (DU-145 prostate): 3.23 µM
TGI (DU-145 prostate): 11.8 µM
GI50 (K-562 leukemia): 3.75 µM
TGI (K-562 leukemia): 15.3 µM
GI50 (SR leukemia): 18.3 nM
TGI (SR leukemia): 32.8 nM
GI50 (COLO 205 colon): 2310 nM
TGI (COLO 205 colon): 7.37 µM
GI50 (MCF7 breast): 1040 nM
TGI (MCF7 breast): 6.1 µM
GI50 (SN12C renal): 2600 nM
TGI (SN12C renal): 9.92 µM
GI50 (LOX IMVI melanoma): 2300 nM
TGI (LOX IMVI melanoma): 4.48 µM
GI50 (KM12 colon): 3.76 µM
TGI (KM12 colon): 13.2 µM
GI50 (ACHN renal): 1620 nM
TGI (ACHN renal): 5.15 µM
GI50 (SK-MEL-5 melanoma): 2020 nM
TGI (SK-MEL-5 melanoma): 7.51 µM
GI50 (MDA-MB-231 breast): 1410 nM
TGI (MDA-MB-231 breast): 4.94 µM
GI50 (U251 glioblastoma): 3.75 µM
TGI (U251 glioblastoma): 13.5 µM
GI50 (CAKI-1 renal): 2170 nM
TGI (CAKI-1 renal): 5.5 µM
GI50 (UO-31 renal): 1650 nM
TGI (UO-31 renal): 4.44 µM
GI50 (MDA-MB-468 breast): 3.1 µM
TGI (MDA-MB-468 breast): 9.91 µM
GI50 (NCI-H522 lung): 1860 nM
TGI (NCI-H522 lung): 6.09 µM
GI50 (CCRF-CEM leukemia): 3.46 µM
TGI (CCRF-CEM leukemia): 10.3 µM
GI50 (HT29 colon): 1290 nM
TGI (HT29 colon): 5.08 µM
GI50 (PC-3 prostate): 6.17 µM
TGI (PC-3 prostate): 19.8 µM
GI50 (HL-60(TB) leukemia): 2680 nM
TGI (HL-60(TB) leukemia): 5.61 µM
GI50 (HCC-2998 colon): 2490 nM
TGI (HCC-2998 colon): 14.3 µM
GI50 (HCT-116 colon): 3.34 µM
TGI (HCT-116 colon): 12.4 µM
GI50 (NCI/ADR-RES ovarian): 2560 nM
TGI (NCI/ADR-RES ovarian): 7.81 µM
GI50 (RXF 393 renal): 1700 nM
TGI (RXF 393 renal): 6.37 µM
GI50 (A549 NSCLC): 2480 nM
TGI (A549 NSCLC): 9.2 µM
GI50 (SK-MEL-28 melanoma): 2690 nM
TGI (SK-MEL-28 melanoma): 9.67 µM
GI50 (T-47D breast): 1460 nM
TGI (T-47D breast): 12.1 µM
GI50 (MDA-MB-435 melanoma): 1950 nM
TGI (MDA-MB-435 melanoma): 5.18 µM
GI50 (SK-MEL-2 melanoma): 1430 nM
TGI (SK-MEL-2 melanoma): 3.68 µM
GI50 (OVCAR-4 ovarian): 1490 nM
TGI (OVCAR-4 ovarian): 6.28 µM
GI50 (A498 renal): 4.96 µM
TGI (A498 renal): 17 µM
GI50 (SK-OV-3 ovarian): 1500 nM
TGI (SK-OV-3 ovarian): 5.26 µM
GI50 ([…]-0 renal): 3.08 µM
TGI (786-0 renal): 12.6 µM
GI50 (RPMI-8226 leukemia): 1270 nM
TGI (RPMI-8226 leukemia): 4.72 µM
GI50 (UACC-62 melanoma): 3.1 µM
TGI (UACC-62 melanoma): 14.8 µM
GI50 (MALME-3M melanoma): 3.41 µM
TGI (MALME-3M melanoma): 14.1 µM
GI50 (BT-549 breast): 10.9 µM
TGI (BT-549 breast): 22.9 µM
GI50 (NCI-H460 NSCLC): 3.3 µM
TGI (NCI-H460 NSCLC): 13.7 µM
GI50 (TK-10 renal): 2950 nM
TGI (TK-10 renal): 9 µM
GI50 (M14 melanoma): 2380 nM
TGI (M14 melanoma): 7.72 µM
GI50 (UACC-257 melanoma): 2100 nM
TGI (UACC-257 melanoma): 6.53 µM
GI50 (OVCAR-5 ovarian): 1500 nM
TGI (OVCAR-5 ovarian): 4.24 µM
GI50 (HOP-62 NSCLC): 2850 nM
TGI (HOP-62 NSCLC): 8.12 µM
GI50 (NCI-H322M lung): 2860 nM
TGI (NCI-H322M lung): 9.29 µM
GI50 (OVCAR-8 ovarian): 2990 nM
TGI (OVCAR-8 ovarian): 10.2 µM
GI50 (IGROV1 ovarian): 1860 nM
TGI (IGROV1 ovarian): 4.46 µM
GI50 (SNB-19 CNS): 3.36 µM
TGI (SNB-19 CNS): 12.9 µM
GI50 (SF-295 CNS): 3.03 µM
TGI (SF-295 CNS): 8.73 µM
GI50 (HCT-15 colon): 2970 nM
TGI (HCT-15 colon): 11.1 µM
GI50 (NCI-H226 lung): 1420 nM
TGI (NCI-H226 lung): 3.68 µM
GI50 (OVCAR-3 ovarian): 1580 nM
TGI (OVCAR-3 ovarian): 4.46 µM
GI50 (MOLT-4 leukemia): 1360 nM
TGI (MOLT-4 leukemia): 2710 nM
